In patent US11180483B2, “Substituted reverse pyrimidine Bmi-1 inhibitors” (PTC Therapeutics, Inc., priority 2012, dated 2021):

Assays:
Bmi-1 = assay: Sandwich ELISA Assay (Bmi-1 ELISA) in HT-1080 cells; type: cell-based
In short: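 Bmi-1 in lysates was measured by a three-antibody ELISA with TMB, OD450 minus OD570 reference, interpolated on a GST-tagged recombinant Bmi-1 standard curve, 0-8000 pg/mL. Lysates came from HT-1080 cells treated 40-48 h with compound, final DMSO 0.5%.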

U87-MG tumor cells = assay: In Vivo Survival Assay, orthotopic model of glioblastoma; set-up: species or system nu/nu mice; conditions: daily dosing begun 10 days after intracranial implantation, 40 day time period, versus vehicle and temozolomide (p<0.0001)
Experimental: A glioblastoma animal model was developed in which U87-MG tumor cells were injected intracranially into nu/nu mice and a tumor was allowed to become established over a 10 day period. The mice were dosed daily with vehicle, Compound 109 or temozolomide (a standard-of-care agent), as indicated. The comparative results for survival for each treatment group (n=10) from administration of vehicle, Compound 109 and temozolomide are shown in FIG. 4.
Cells were implanted intracranially into nude mice and dosing was begun 10 days later with either vehicle, Compound 109 or temozolomide.

[1] = system: CSC population in a BXD GBM model; assay: In Vitro Cancer Stem Cell Assay, BXD GBM model (number of neurospheres); type: cell-based; conditions: 13 days, stated concentrations
Experimental: In Vitro Cancer Stem Cell Assay
The effect on inhibition of Bmi-1 function and reduction in the level of Bmi-1 protein by a compound of Formula (I) or a form thereof was tested in the in vitro pediatric Baylor Xenograft Derived (BXD) brain tumor model and in cells from primary patient cultures (PPC).
Cells were grown under conditions to measure either general cell growth (such as in fetal bovine serum (FBS) containing media in conventional tissue culture plates) or in conditions specifically for cancer stem cell (CSC) growth (low serum, nonadherent plates) to assess the effect of Bmi-1 inhibition and reduction in the level of Bmi-1 protein by a compound of Formula (I) on these populations. The cells were treated with a predetermined dose range of Compound 109 at fixed time points over a time period of from 24 hours to 13 days. The effect of inhibition on cell growth viability was quantitated using conventional 2D growth and neurosphere growth using a cell-counting kit (CCK) (supplied by Dojindo Molecular Technologies, Inc.).

| EC50 (Bmi-1) [nM] | melting point [°C] | SMILES | survival of tumor bearing mice, FIG. 4 (U87-MG tumor cells) | CSC population (as measured by number of neurospheres), FIG. 1 [1] | CSC population (as measured by number of neurospheres), FIG. 2 [1] |
| --- | --- | --- | --- | --- | --- |
| 10 to 100 | 199 to 201 | Nc1cc(Nc2ccc(C(F)(F)F)cc2)nc(-n2c(C3CC3)nc3ccccc32)n1 [Cpd 149, 2-(2-cyclopropyl-1H-benzimidazol-1-yl)-N-[4-(trifluoromethyl)phenyl]pyrimidine-4,6-diamine] | – | – | – |
| 10 to 100 | 122 to 125 | Cc1nc2ccc(F)cc2n1-c1nc(N)cc(Nc2ccc(N(C)C)cc2)n1 [Cpd 266, N-[4-(dimethylamino)phenyl]-2-(6-fluoro-2-methyl-1H-benzimidazol-1-yl)pyrimidine-4,6-diamine] | – | – | – |
| 100 to 3000 | 150 to 152 | CCc1nn2ccc(F)cc2c1-c1nc(N)c(F)c(Nc2ccc(OC(F)F)c(F)c2)n1 [Cpd 188, N-[4-(difluoromethoxy)-3-fluorophenyl]-2-(2-ethyl-5-fluoropyrazolo[1,5-a]pyridin-3-yl)-5-fluoropyrimidine-4,6-diamine] | – | – | – |
| 100 to 3000 | 103 to 105 | CCc1nn2ccc(F)cc2c1-c1nc(N)c(F)c(Nc2ccc(OC(F)F)cc2)n1 [Cpd 186, N-[4-(difluoromethoxy)phenyl]-2-(2-ethyl-5-fluoropyrazolo[1,5-a]pyridin-3-yl)-5-fluoropyrimidine-4,6-diamine] | – | – | – |
| 10 to 100 | 183 to 185 | Cc1nc2ccc(F)cc2n1-c1nc(N)cc(Nc2ccc(Cl)cc2)n1 [Cpd 263, N-(4-chlorophenyl)-2-(6-fluoro-2-methyl-1H-benzimidazol-1-yl)pyrimidine-4,6-diamine] | – | – | – |
| 1 to 10 | 118 to 119 | COc1ccc(Nc2cc(N)nc(-n3c(C)nc4ccccc43)n2)cn1 [Cpd 208, N-(6-methoxypyridin-3-yl)-2-(2-methyl-1H-benzimidazol-1-yl)pyrimidine-4,6-diamine] | – | – | – |
| 1 to 10 | 114 to 115 | Nc1cc(Nc2ccc(OC(F)F)cc2)nc(-n2c(C(F)F)nc3ccc(F)cc32)n1 [Cpd 145, N-[4-(difluoromethoxy)phenyl]-2-[2-(difluoromethyl)-6-fluoro-1H-benzimidazol-1-yl]pyrimidine-4,6-diamine] | – | – | – |
| 100 to 3000 | 226 to 229 | Cc1nc2ccc(F)cn2c1-c1nc(N)c(F)c(Nc2ccc(Cl)cc2)n1 [Cpd 251, N-(4-chlorophenyl)-5-fluoro-2-(6-fluoro-2-methylimidazo[1,2-a]pyridin-3-yl)pyrimidine-4,6-diamine] | – | – | – |
| 100 to 3000 | 164 to 166 | CCc1nn2ccc(F)cc2c1-c1nc(N)c(F)c(Nc2ccc(C(F)(F)F)cc2)n1 [Cpd 187, 2-(2-ethyl-5-fluoropyrazolo[1,5-a]pyridin-3-yl)-5-fluoro-N-[4-(trifluoromethyl)phenyl]pyrimidine-4,6-diamine] | – | – | – |
| 100 to 3000 | 256 to 258 | Cc1nc2ncc(F)cn2c1-c1nc(N)cc(Nc2ccc(C(F)(F)F)cc2)n1 [Cpd 100, 2-(6-fluoro-2-methylimidazo[1,2-a]pyrimidin-3-yl)-N-[4-(trifluoromethyl)phenyl]pyrimidine-4,6-diamine] | – | – | – |
| 10 to 100 | 156 to 158 | CCc1nc2ccc(F)cc2n1-c1nc(N)cc(Nc2ccc(OC(F)F)c(F)c2)n1 [Cpd 77, N-[4-(difluoromethoxy)-3-fluorophenyl]-2-(2-ethyl-6-fluoro-1H-benzimidazol-1-yl)pyrimidine-4,6-diamine] | – | – | – |
| 10 to 100 | 216 to 218 | CC(C)c1nc2ccccc2n1-c1nc(N)cc(Nc2ccc(C(F)(F)F)cc2)n1 [Cpd 151, 2-[2-(propan-2-yl)-1H-benzimidazol-1-yl]-N-[4-(trifluoromethyl]phenyl]pyrimidine-4,6-diamine] | – | – | – |
| 10 to 100 | 187 to 188 | Nc1cc(Nc2ccc(C(F)(F)F)cc2)nc(-n2c(C(F)F)nc3ccccc32)n1 [Cpd 152, 2-[2-(difluoromethyl)-1H-benzimidazol-1-yl]-N-[4-(trifluoromethyl)phenyl]pyrimidine-4,6-diamine] | – | – | – |
| 100 to 3000 | 199 to 202 | Nc1cc(Nc2ccc(OC(F)(F)F)cc2)nc(-c2c(C(F)(F)F)nc3ccccn23)n1 [Cpd 67, N-[4-(trifluoromethoxy)phenyl]-2-[2-(trifluoromethyl]imidazo[1,2-a]pyridin-3-yl]pyrimidine-4,6-diamine] | – | – | – |
| 10 to 100 | 203 to 205 | Nc1cc(Nc2ccc(C(F)(F)F)cc2)nc(-c2c(C(F)(F)F)nc3ccccn23)n1 [Cpd 66, 2-[2-(trifluoromethyl)imidazo[1,2-a]pyridin-3-yl]-N-[4-(trifluoromethyl)phenyl]pyrimidine-4,6-diamine] | – | – | – |
| 10 to 100 | 166 to 168 | CCc1nc2ccc(F)cc2n1-c1nc(N)cc(Nc2ccc(OC(F)F)cc2)n1 [Cpd 144, N-[4-(difluoromethoxy)phenyl]-2-(2-ethyl-6-fluoro-1H-benzimidazol-1-yl)pyrimidine-4,6-diamine] | – | – | – |
| 10 to 100 | 182 to 183 | Cc1nc2ccc(F)cc2n1-c1nc(N)cc(Nc2ccc(OC(F)F)c(F)c2)n1 [Cpd 76, N-[4-(difluoromethoxy)-3-fluorophenyl]-2-(6-fluoro-2-methyl-1H-benzimidazol-1-yl)pyrimidine-4,6-diamine] | – | – | – |
| 10 to 100 | 168 to 170 | Cc1nc2ccc(F)cc2n1-c1nc(N)cc(Nc2ccc(OC(F)F)cc2)n1 [Cpd 72, N-[4-(difluoromethoxy)phenyl]-2-(6-fluoro-2-methyl-1H-benzimidazol-1-yl)pyrimidine-4,6-diamine] | – | – | – |
| 100 to 3000 | 203 to 205 | Cc1cccc(Nc2cc(N)nc(-n3c(C)nc4ccc(F)cc43)n2)c1 [Cpd 268, 2-(6-fluoro-2-methyl-1H-benzimidazol-1-yl)-N-(3-methylphenyl)pyrimidine-4,6-diamine] | – | – | – |

| SMILES | EC50 (Bmi-1) [nM] | melting point [°C] | survival of tumor bearing mice, FIG. 4 (U87-MG tumor cells) | CSC population (as measured by number of neurospheres), FIG. 1 [1] | CSC population (as measured by number of neurospheres), FIG. 2 [1] |
| --- | --- | --- | --- | --- | --- |
| Cc1nc2ccc(F)cc2n1-c1nc(N)c(F)c(Nc2ccc(C(F)(F)F)cc2)n1 [Cpd 109, 5-fluoro-2-(6-fluoro-2-methyl-1H-benzimidazol-1-yl)-N-[4-(trifluoromethyl)phenyl]pyrimidine-4,6-diamine] | 10 to 100 | – | extended survival | dose dependently reduced | universally reduced |
